Read-outs that look alike come from different tables or passages of the source.
Tests used:
Format in all cases: biochemical, cynomolgus monkey
[1] = test system: aldosterone synthase (CYP11B2); test: Inhibition of aldosterone synthase (cynomolgus adrenal mitochondria, aldosterone by mass spectrometry); details: selectivity for aldosterone synthase inhibition over cortisol synthase (CYP11B1) inhibition, fold
Method in brief: (§1)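 Cynomolgus adrenal mitochondria (50 units CYP11B2 activity) incubated with 2 μM corticosterone in 100 mM potassium phosphate pH 7.4, 1% DMSO; started with 1 mM NADPH, 90 min at 37 °C. Aldosterone quantified by mass spectrometry; no-NADPH blank as 0%, no-compound as 100% activity, across compound concentrations.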

[2] = molecular target: aldosterone synthase (CYP11B2) (Macaca fascicularis, UniProt A0A2K5UPL9); test: as above; details: 2 μM corticosterone substrate, 50 units CYP11B2, 90 min, 37° C.; read-out: Aldosterone Inhibition IC50
Sequence of aldosterone synthase (CYP11B2) (Macaca fascicularis, UniProt A0A2K5UPL9) (A0A2K5UPL9 1-503): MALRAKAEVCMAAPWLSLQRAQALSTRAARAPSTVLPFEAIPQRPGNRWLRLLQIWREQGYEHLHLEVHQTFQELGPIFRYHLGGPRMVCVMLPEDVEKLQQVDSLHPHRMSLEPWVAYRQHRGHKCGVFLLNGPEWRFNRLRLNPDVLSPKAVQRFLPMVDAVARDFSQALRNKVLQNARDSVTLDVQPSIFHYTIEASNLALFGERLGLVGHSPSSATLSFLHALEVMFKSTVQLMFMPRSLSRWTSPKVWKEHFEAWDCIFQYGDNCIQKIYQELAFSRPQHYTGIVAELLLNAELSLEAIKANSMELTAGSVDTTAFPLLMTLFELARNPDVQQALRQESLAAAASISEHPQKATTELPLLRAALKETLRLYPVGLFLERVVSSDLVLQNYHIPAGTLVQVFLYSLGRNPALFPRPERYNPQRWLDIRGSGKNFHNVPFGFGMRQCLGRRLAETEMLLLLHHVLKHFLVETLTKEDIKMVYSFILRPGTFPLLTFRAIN
Method in brief: as §1

[3] = molecular target: cortisol synthase (CYP11B1) (Macaca fascicularis, UniProt A0A2K5ULY1); test: Inhibition of cortisol synthesis (cynomolgus adrenal mitochondria, cortisol by mass spectrometry)
Method in brief: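 Cynomolgus adrenal mitochondria (150 units CYP11B1 activity) incubated with 11-deoxycortisol in 100 mM potassium phosphate pH 7.4, 1% DMSO; reaction started with 1 mM NADPH, 90 min at 37° C, stopped with MeCN. Cortisol quantified by mass spectrometry; IC50 from 4-parameter logistic fit versus no-compound (100%) and no-NADPH (0%) controls.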

[4] = 11-deoxycortisol substrate, 150 units CYP11B1; read-out: Cortisol Inhibition IC50
[5] = read-out: Cortisol Inhibition IC50; 11-deoxycortisol substrate, 150 units CYP11B1

Row | Structure (SMILES) | Selectivity [1] | IC50 [2] [nM] | IC50 [3, 4] [nM] | IC50 [3, 5] [nM]
1 | CC1(C)CC(=O)c2c(ncn2C2CCc3ccccc3C2)C1 (stereo not drawn) [C-ADH, 6,6-Dimethyl-3-(1,2,3,4-tetrahydro-naphthalen-2-yl)-3,5,6,7-tetrahydro-benzoimidazol-4-one] | 2900 | 10 | 29000 | –
2 | CC1(C)CC(=O)c2c(ncn2CC2CCOCC2)C1 [C-ADI, 6,6-Dimethyl-3-(tetrahydro-pyran-4-ylmethyl)-3,5,6,7-tetrahydro-benzoimidazol-4-one] | 41 | 470 | 19000 | –
3 | O=C1CCCc2ncn(C3CCc4ccccc4C3)c21 (stereo not drawn) [C-ADJ, 3-(1,2,3,4-Tetrahydro-naphthalen-2-yl)-3,5,6,7-tetrahydro-benzoimidazol-4-one] | 420 | 2.8 | 1200 | –
4 | O=C1CCCc2ncn(C3Cc4ccccc4C3)c21 [C-ADK, 3-Indan-2-yl-3,5,6,7-tetrahydro-benzoimidazol-4-one] | 400 | 21 | 8400 | –
5 | CC1(C)CC(=O)c2c(ncn2C2CCc3cc(C#N)ccc3C2)C1 (stereo not drawn) [C-ADN, 6-(5,5-Dimethyl-7-oxo-4,5,6,-tetrahydro-benzoimidazol-1-yl)-5,6,7,8-tetrahydro-naphthalene-2-carbonitrile] | 160 | 190 | > 30000 | –
6 | CC1(C)CC(=O)c2c(ncn2Cc2ccc(F)cc2)C1 [C-ADO, 3-(4-Fluoro-benzyl)-6,6-dimethyl-3,5,6,7-tetrahydro-benzoimidazol-4-one] | 96 | 56 | 5400 | –
7 | CC1(C)CC(=O)c2c(ncn2Cc2ccc(S(C)(=O)=O)cc2)C1 [C-ADP, 3-(4-Methanesulfonyl-benzyl)-6,6-dimethyl-3,5,6,7-tetrahydro-benzoimidazol-4-one] | 17 | 92 | 1600 | –
8 | COc1ccc(Cn2cnc3c2C(=O)CC(C)(C)C3)cc1 [C-ADQ, 3-(4-Methoxy-benzyl)-6,6-dimethyl-3,5,6,7-tetrahydro-benzoimidazol-4-one] | 22 | 96 | 2100 | –
9 | CC1(C)CC(=O)c2c(ncn2Cc2ccccc2)C1 [C-ADR, 3-Benzyl-6,6-dimethyl-3,5,6,7-tetrahydro-benzoimidazol-4-one] | 97 | 97 | 9400 | –
10 | CN(CCO)C(=O)c1ccc(Cn2cnc3c2C(=O)CC(C)(C)C3)cc1 [C-ADS, 4-(5,5-Dimethyl-7-oxo-4,5,6,7-tetrahydro-benzoimidazol-1-ylmethyl)-N-(2-hydroxy-ethyl)-N-methyl-benzamide] | 150 | 290 | 43000 | –
11 | CC1(C)CC(=O)c2c(ncn2Cc2ccc(C(=O)NCCS(C)(=O)=O)cc2)C1 [C-ADU, 4-(5,5-Dimethyl-7-oxo-4,5,6,7-tetrahydro-benzoimidazol-1-ylmethyl)-N-(2-methanesulfonyl-ethyl)-benzamide] | 30 | 210 | 6200 | –
12 | CC1(C)CC(=O)c2c(ncn2Cc2ccc(C(C)(C)O)cc2)C1 [C-ADV, 3-[4-(1-Hydroxy-1-methyl-ethyl)-benzyl]-6,6-dimethyl-3,5,6,7-tetrahydro-benzoimidazol-4-one] | 1.4 | 25 | 35 | –
13 | CC1(C)CCc2ncn(-c3ccc(C#N)cc3)c2C1=O [C-ADX, 4-(6,6-Dimethyl-7-oxo-4,5,6,7-tetrahydro-benzoimidazol-1-yl)-benzonitrile] | 153 | 14 | 2140 | –
14 | CC1CCc2ncn(-c3ccc(C#N)cc3)c2C1=O (stereo not drawn) [C-ADY, 4-(6-Methyl-7-oxo-4,5,6,7-tetrahydro-benzoimidazol-1-yl)-benzonitrile] | 152 | 24 | 3640 | –
15 | NC(=O)N1CCCc2cc(-n3cnc4c3C(=O)CCC4)ccc21 [C-ADZ, 6-(7-Oxo-4,5,6,7-tetrahydro-benzoimidazol-1-yl)-3,4-dihydro-2H-quinoline-1-carboxylic acid amide] | 300 | 99 | > 30000 | –
16 | N#Cc1ccc(-n2cnc3c2C(=O)CCC3)cc1Cl [C-AEA, 2-Chloro-4-(7-oxo-4,5,6,7-tetrahydro-benzoimidazol-1-yl)-benzonitrile] | 130 | 8.7 | – | 1100
17 | N#Cc1ccc(-n2cnc3c2C(=O)C[C@@H](C(N)=O)C3)cc1Cl [C-AEB-A, (S)-1-(3-Chloro-4-cyano-phenyl)-7-oxo-4,5,6,7-tetrahydro-1H-benzoimidazole-5-carboxylic acid amide] | 51 | 590 | – | > 30000
18 | N#Cc1ccc(-n2cnc3c2C(=O)C[C@H](C(N)=O)C3)cc1Cl [C-AEB-B, (R)-1-(3-Chloro-4-cyano-phenyl)-7-oxo-4,5,6,7-tetrahydro-1H-benzoimidazole-5-carboxylic acid amide] | 940 | 32 | – | > 30000
19 | Cn1ncc2c1CC(n1cnc3c1C(=O)CCC3)CC2 (stereo not drawn) [C-AEF, 3-(1-Methyl-4,5,6,7-tetrahydro-1H-indazol-6-yl)-3,5,6,7-tetrahydro-benzoimidazol-4-one] | 160 | 190 | > 30000 | –
20 | CNC(=O)[C@H]1CC(=O)c2c(ncn2-c2ccc(C#N)c(Cl)c2)C1 [C-AEH, (R)-1-(3-Chloro-4-cyano-phenyl)-7-oxo-4,5,6,7-tetrahydro-1H-benzoimidazole-5-carboxylic acid methylamide] | 526 | 57 | – | > 30000

From US10858342B2, “Bicyclic imidazole derivatives useful for the treatment of renal diseases, cardiovascular diseases and fibrotic diseases” (Boehringer Ingelheim International GmbH, priority 2016, dated 2020)
